Assay results reported in patent US6071903A, “2,3,4,5-tetrahydro-1H-[1,4]-benzodiazepine-3-hydroxyamic acids” (American Cyanamid Company, priority 1999, dated 2000).

How the values were obtained:
Assay type in all cases: biochemical
MMP-1 = target: T1, MMP-1 (Homo sapiens, UniProt P03956); assay: In Vitro Collagenase Assay (MMP-1); conditions: human recombinant fibroblast collagenase
T1 construct: human recombinant fibroblast collagenase (truncated, mw=18,828)
T1 sequence (P03956 100-269 limits assumed): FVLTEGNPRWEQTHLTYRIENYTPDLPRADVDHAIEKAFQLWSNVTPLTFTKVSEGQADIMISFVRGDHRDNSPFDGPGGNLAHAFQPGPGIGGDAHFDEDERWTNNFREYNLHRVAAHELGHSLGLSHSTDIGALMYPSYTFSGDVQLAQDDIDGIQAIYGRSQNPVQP
From the text: In Vitro Collagenase Assay
This assay was based on the cleavage of a peptide substrate ((Dnp-Pro-Cha-Gly-Cys(Me)-His-Ala-Lys(NMa)-NH2), available from Peptide International, Inc.) by collagenase releasing the fluorescent NMa group which was quantitated on the fluorometer as disclosed in Bickett et al., "A High Throughput Fluorogenic Substrate for Interstitial Collagenase (MMP-1) and Gelatinase (MMP-9)", Anal. Biochem., 212:58-64, (1993). Dnp quenches the NMa fluorescence in the intact substrate.
The assay was run in HCBC assay buffer (50 mM HEPES, pH 7.0, 5 mM Ca^+2, 0.02% Brij, 0.5% Cysteine), with human recombinant fibroblast collagenase (truncated, mw=18,828. from Wyeth-Ayerst Research, Radnor, Pa.). The substrate was dissolved in methanol and stored frozen in 1 mM aliquots. Collagenase was stored frozen in buffer in 25 μM aliquots. In conducting the assay, the substrate was dissolved in HCBC buffer to a final concentration of 10 μM and collagenase to a final concentration of 5 nM. The compounds being examined were dissolved in methanol, DMSO, or HCBC. The methanol and DMSO were diluted in HCBC to <1.0%. The compounds were added to a 96 well plate containing enzyme and the reaction was started by the addition of substrate.
(§1) The reaction was read (excitation 340 nm, emission 444 nm) for 10 min. and the increase in fluorescence over time was plotted as a linear line. The slope of the line was calculated representing the reaction rate. The linearity of the reaction rate was confirmed (r^2 >0.85). The mean (x±sem) of the control rate was calculated and compared for statistical significance (p<0.05) with drug-treated rates using Dunnett's multiple comparison test.

MMP-9 = MMP-9 (Homo sapiens, UniProt P14780); assay: In Vitro Gelatinase Assay (MMP-9); conditions: human neutrophil gelatinase B
Procedure: The enzyme activity is measured by the rate of the color increase. The thiopeptide substrate was made up fresh as a 20 mM stock in 100% DMSO and the DTNB was dissolved in 100% DMSO as a 100 mM stock and stored in the dark at room temperature. The substrate and the DTNB were diluted together to 1 mM with substrate buffer (50 mM HEPES, pH 7.5, 5 mM CaCl2) before use. […] The assay buffer, enzyme. […] The increase in OD405 was plotted and the slope of the line was calculated. The slope represents the reaction rate.

MMP-13 = MMP-13 (Homo sapiens, UniProt P45452); assay: MMP-13 inhibition (Table 1); conditions: read-out: IC50 (nM) MMP-13
TACE = target: T2, TACE (Homo sapiens, UniProt P78536); assay: Procedure for Measuring TACE Inhibition
T2 construct: purchased Immunex
Procedure: Procedure for Measuring TACE Inhibition
The plates were incubated for 10 minutes at room temperature. The reaction was initiated by addition of a fluorescent peptidyl substrate (final concentration 100 μM) to each well with shaking on a shaker for 5 sec.
as §1, with “420” for “444”, “and this represents” for “representing”, “The linearity of the reaction rate was confirmed (r^2 >0.85).” left out

T2 sequence (P78536 215-824): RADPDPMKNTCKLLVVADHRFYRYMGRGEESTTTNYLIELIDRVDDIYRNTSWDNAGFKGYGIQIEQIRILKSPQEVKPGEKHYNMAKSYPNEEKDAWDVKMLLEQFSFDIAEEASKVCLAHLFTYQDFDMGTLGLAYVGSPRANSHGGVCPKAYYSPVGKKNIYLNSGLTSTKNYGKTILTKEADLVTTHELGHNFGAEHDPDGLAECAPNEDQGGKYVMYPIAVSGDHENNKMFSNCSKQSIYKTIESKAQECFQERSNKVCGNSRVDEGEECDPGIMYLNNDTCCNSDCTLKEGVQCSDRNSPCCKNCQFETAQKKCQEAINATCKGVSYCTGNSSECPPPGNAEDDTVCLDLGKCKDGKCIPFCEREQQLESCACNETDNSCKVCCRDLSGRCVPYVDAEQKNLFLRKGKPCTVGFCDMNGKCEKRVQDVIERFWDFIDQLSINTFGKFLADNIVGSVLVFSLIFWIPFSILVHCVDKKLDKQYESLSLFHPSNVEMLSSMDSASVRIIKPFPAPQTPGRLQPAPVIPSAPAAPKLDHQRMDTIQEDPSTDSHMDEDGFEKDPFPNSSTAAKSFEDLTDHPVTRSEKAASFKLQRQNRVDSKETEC
Sequence of MMP-9 (P14780 94-707): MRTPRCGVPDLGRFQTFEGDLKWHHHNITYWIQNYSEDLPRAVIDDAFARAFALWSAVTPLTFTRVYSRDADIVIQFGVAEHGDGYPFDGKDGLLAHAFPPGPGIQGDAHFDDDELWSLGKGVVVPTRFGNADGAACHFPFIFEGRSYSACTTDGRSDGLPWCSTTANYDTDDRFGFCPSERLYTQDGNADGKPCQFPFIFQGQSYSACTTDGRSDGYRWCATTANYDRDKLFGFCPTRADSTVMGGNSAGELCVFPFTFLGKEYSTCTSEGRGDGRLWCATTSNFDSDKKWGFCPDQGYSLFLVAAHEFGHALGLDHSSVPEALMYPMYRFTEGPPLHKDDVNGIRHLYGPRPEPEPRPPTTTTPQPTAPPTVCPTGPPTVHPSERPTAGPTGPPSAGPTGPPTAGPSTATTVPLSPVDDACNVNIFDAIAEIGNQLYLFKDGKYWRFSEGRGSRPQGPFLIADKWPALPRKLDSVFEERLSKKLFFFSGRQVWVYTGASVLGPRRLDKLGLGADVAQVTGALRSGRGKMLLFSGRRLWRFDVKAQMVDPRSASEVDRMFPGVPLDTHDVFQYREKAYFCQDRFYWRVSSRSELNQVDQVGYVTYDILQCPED

COc1ccc(S(=O)(=O)N2Cc3ccccc3N(C(=O)COc3ccccc3)CC2C(=O)NO)cc1 (stereo not shown) [Example 58, 4-(4-Methoxybenzenesulfonyl)-1-(phenoxyacetyl)-2,3,4,5-tetrahydro-1H-[1,4]benzodiazepine-3-carboxylic acid, Hydroxamide]
IC50 (MMP-1): 65.5 nM
IC50 (MMP-9): 4.4 nM
IC50 (MMP-13): 2.9 nM
IC50 (TACE): 154 nM

COc1ccc(S(=O)(=O)N2Cc3ccccc3N(C(C)=O)CC2C(=O)NO)cc1 (stereo not shown) [Example 6, 1-Acetyl-4-(4-methoxybenzenesulfonyl)-2,3,4,5-tetrahydro-1H-[1,4]benzodiazepine-3-carboxylic acid, Hydroxyamide]
IC50 (MMP-1): 18.4 nM
IC50 (MMP-9): 1.4 nM
IC50 (MMP-13): 1 nM
IC50 (TACE): 103 nM

COc1ccc(S(=O)(=O)N2Cc3ccccc3N(Cc3ccccc3)CC2C(=O)NO)cc1 (stereo not shown) [Example 67, 1-Benzyl-4-(4-methoxybenzenesulfonyl)-2,3,4,5-tetrahydro-1H-[1,4]benzodiazepine-3-carboxylic acid, Hydroxylamide]
IC50 (MMP-1): 1320 nM
IC50 (MMP-9): 50.8 nM
IC50 (MMP-13): 73.9 nM
IC50 (TACE): 551 ± 29 nM

COc1ccc(S(=O)(=O)N2CC(C(=O)NO)N(S(=O)(=O)c3ccc(OC)cc3)Cc3ccccc32)cc1 (stereo not shown) [Example 4, 1,4-Bis-(4-Methoxybenzenesulfonyl)-2,3,4,5-tetrahydro-1H-[1,4]benzodiazepine-3-carboxylic acid, Hydroxyamide]
IC50 (MMP-1): 224 nM
IC50 (MMP-9): 12.2 nM
IC50 (MMP-13): 4.3 nM
IC50 (TACE): 101 ± 3 nM

COCC(=O)N1CC(C(=O)NO)N(S(=O)(=O)c2ccc(OC)cc2)Cc2ccccc21 (stereo not shown) [Example 9, 1-Methoxyacetyl-4-(4-methoxybenzenesulfonyl)-2,3,4,5-tetrahydro-1H-[1,4]benzodiazepine-3-carboxylic acid, Hydroxyamide]
IC50 (MMP-1): 34.1 nM
IC50 (MMP-9): 1.34 nM
IC50 (MMP-13): 1.19 nM
IC50 (TACE): 95.2 nM

COc1ccc(S(=O)(=O)N2Cc3ccccc3N(C(=O)C3CCCCC3)CC2C(=O)NO)cc1 (stereo not shown) [Example 57, 1-(Cyclohexylcarbonyl)-4-(4-methoxybenzenesufonyl)-2,3,4,5-tetrahydro-1H-[1,4]benzodiazepine-3-carboxylic acid, Hydroxyamide]
IC50 (MMP-1): 465 nM
IC50 (MMP-9): 12.7 nM
IC50 (TACE): 318 nM

COc1ccc(S(=O)(=O)N2Cc3ccccc3N(C(=O)c3ccc(-n4ccc(C)n4)cc3Cl)CC2C(=O)NO)cc1 (stereo not shown) [Example 66, 4-(4-Methoxybenzenesulfonyl)-1-[2-chloro-4-(3-methyl-1-pyrazolyl)phenylcarbonyl}-2,3,4,5-tetrahydro-1H-[1,4]benzodiazepine-3-carboxylic acid, Hydroxyamide]
IC50 (MMP-1): 83.4 nM
IC50 (MMP-9): 3.4 nM
IC50 (MMP-13): 2.6 nM
IC50 (TACE): 148 nM

COc1ccc(S(=O)(=O)N2Cc3ccccc3N(C(=O)c3cccs3)CC2C(=O)NO)cc1 (stereo not shown) [Example 8, 4-(4-Methoxybenzenesulfonyl)-1-(2-thienylcarbonyl)-2,3,4,5-tetrahydro-1H-[1,4]benzodiazepine-3-carboxylic acid, Hydroxyamide]
IC50 (MMP-1): 19.7 nM
IC50 (MMP-13): 1.1 nM

COc1ccc(S(=O)(=O)N2Cc3ccccc3N(C(=O)C3CC3)CC2C(=O)NO)cc1 (stereo not shown) [Example 55, 1-(Cyclopropylcarbonyl)-4-(4-methoxybenzenesulfonyl)-2,3,4,5-tetrahydro-1H-[1,4]benzodiazepine-3-carboxylic acid, Hydroxyamide]
IC50 (MMP-1): 171 nM
IC50 (MMP-9): 4 nM
IC50 (TACE): 68.5 nM

COc1ccc(S(=O)(=O)N2Cc3ccccc3N(C(=O)c3ccncc3)CC2C(=O)NO)cc1 (stereo not shown) [Example 13, 4-(4-Methoxybenzenesulfonyl)-1-(4-pyridinylcarbonyl)-2,3,4,5-tetrahydro-1H-[1,4]benzodiazepine-3-carboxylic acid, Hydroxyamide]
IC50 (MMP-1): 54.9 nM
IC50 (MMP-9): 9.8 nM
IC50 (MMP-13): 2 nM
IC50 (TACE): 154 nM

COc1ccc(S(=O)(=O)N2Cc3ccccc3N(S(=O)(=O)c3ccc(C)cc3)CC2C(=O)NO)cc1 (stereo not shown) [Example 2, 4-(4-Metboxybenzenesulfonyl)-1-(4-methylphenylsulfonyl)-2,3,4,5-tetrahydro-1H-[1,4]benzodiazepine-3-carboxylic acid, Hydroxyamide]
IC50 (MMP-9): 14.1 nM
IC50 (MMP-13): 5.1 nM
IC50 (TACE): 391 nM

COc1ccc(S(=O)(=O)N2Cc3ccccc3N(C(=O)CCc3ccccc3)CC2C(=O)NO)cc1 (stereo not shown) [Example 12, 4-(4-Methoxybenzenesulfonyl)-1-(3-phenylpropionyl)-2,3,4,5-tetrahydro-1H-[1,4]benzodiazepine-3-carboxylic acid, Hydroxyamide]
IC50 (MMP-1): 523 nM
IC50 (MMP-9): 17.9 nM
IC50 (TACE): 207 nM

COc1ccc(S(=O)(=O)N2Cc3ccccc3N(C(=O)c3cccnc3)CC2C(=O)NO)cc1 (stereo not shown) [Example 7, 4-(4-Methoxybenzenesulfonyl)-1-(3-pyridinylcarbonyl)-2,3,4,5-tetrahydro-1H-[1,4]benzodiazepine-3-carboxylic acid, Hydroxyamide]
IC50 (MMP-1): 20.4 nM
IC50 (MMP-9): 0.6 nM
IC50 (MMP-13): 0.4 nM
IC50 (TACE): 77.7 nM

COc1ccc(S(=O)(=O)N2Cc3ccccc3N(C(=O)c3ccco3)CC2C(=O)NO)cc1 (stereo not shown) [Example 40, 1-(2-Furanylcarbonyl)-4-(4-methoxybenzenesulfonyl)-2,3,4,5-tetrahydro-1H-[1,4]benzodiazepine-3-carboxylic acid, Hydroxyamide]
IC50 (MMP-1): 16.6 nM
IC50 (MMP-9): 1.4 nM
IC50 (MMP-13): 1.2 nM
IC50 (TACE): 28.5 nM

COCCN1CC(C(=O)NO)N(S(=O)(=O)c2ccc(OC)cc2)Cc2ccccc21 (stereo not shown) [Example 62, 4-(4-Methoxybenzenesulfonyl)-1-(2-methoxyetbyl)-2,3,4,5-tetrahydro-1H-[1,4]benzodiazepine-3-carboxylic acid, Hydroxyamide]
IC50 (MMP-1): 1000 nM
IC50 (MMP-9): 100 nM
IC50 (MMP-13): 100 nM

COc1ccc(S(=O)(=O)N2Cc3ccccc3N(C(=O)c3ccc(Cl)cc3Cl)CC2C(=O)NO)cc1 (stereo not shown) [Example 31, 1-(2,4-Dichlorobenzoyl)-4-(4-methoxybenzenesulfonyl)-2,3,4,5-tetrahydro-1H-[1,4]benzodiazepine-3-carboxylic acid, Hydroxyamide]
IC50 (MMP-1): 75.5 nM
IC50 (MMP-9): 3 nM
IC50 (MMP-13): 2.6 nM

COc1ccc(S(=O)(=O)N2Cc3ccccc3N(C(=O)c3cc(F)ccc3C)CC2C(=O)NO)cc1 (stereo not shown) [Example 11, 4-(4-Methoxybenzenesulfonyl)-1-(2-methyl-5-fluorobenzoyl)-2,3,4,5-tetrahydro-1H-[1,4]benzodiazepine-3-carboxylic acid, Hydroxyamide]
IC50 (MMP-1): 55.4 nM
IC50 (MMP-9): 3.9 nM
IC50 (MMP-13): 2.3 nM
IC50 (TACE): 271 nM

COc1ccc(S(=O)(=O)N2Cc3ccccc3N(C(=O)c3cccc(C(F)(F)F)c3)CC2C(=O)NO)cc1 (stereo not shown) [Example 1, 4-(4-Methoxybenzenesulfonyl)-1-(3-trifluoromethylbenzoyl)-2,3,4,5-tetrahydro-1H-[1,4]-benzodiazepine-3-carboxylic acid, Hydroxyamide]
IC50 (MMP-1): 96.2 nM
IC50 (MMP-9): 5.1 nM
IC50 (MMP-13): 3.7 nM
IC50 (TACE): 352 nM

COc1ccc(S(=O)(=O)N2Cc3ccccc3N(C(=O)c3ccccc3-c3ccccc3)CC2C(=O)NO)cc1 (stereo not shown) [Example 14, 1-([1,1'-Biphenyl]-2-carbonyl)-4-(4-methoxybenzenesulfonyl)-2,3,4,5-tetrahydro-1H-[1,4]benzodiazepine-3-carboxylic acid, Hydroxyamide]
IC50 (MMP-1): 542 nM
IC50 (MMP-9): 12.6 nM
IC50 (MMP-13): 3.7 nM

COc1ccc(S(=O)(=O)N2Cc3ccccc3N(C(=O)c3ccccc3)CC2C(=O)NO)cc1 (stereo not shown) [Example 5, 1-Benzoyl-4-(4-methoxybenzenesulfonyl)-2,3,4,5-tetrahydro-1H-[1,4]benzodiazepine-3-carboxylic acid, Hydroxyamide]
IC50 (MMP-9): 0.56 nM
IC50 (MMP-13): 0.4 nM
IC50 (TACE): 95 ± 10 nM
